# Assay results from patent publication US20110015208A1, “PHARMACEUTICAL COMPOSITIONS CONTAINING DOPAMINE RECEPTOR LIGANDS AND METHODS OF TREATMENT USING DOPAMINE RECEPTOR LIGANDS” (priority 2007, published 2011).
# Counter-ions that a name gives are not always drawn.
# Experiments:
# [1] = tested on: basal locomotor activity of mice; assay: Open field, basal locomotor activity of mice (Example 4A); format: in vivo, mouse; conditions: for Total Distance Traveled [mean ± SEM]: test condition water, 60 min pretreatment
# Description: (§1) Cariprazine hydrochloride and escitalopram oxalate were evaluated for anti-manic effects using the amphetamine/chlordiazepoxide (AMPH/CDP) hyperactivity test.
# (§2) Male C57B1/6J mice from Jackson Laboratories (Bar Harbor, Me.) were used in this study. Mice were received at 6-weeks of age. Upon receipt, mice were assigned unique identification numbers (tail marked) and were group housed with 4 mice/cage. All animals remained housed in groups of four during the remainder of the study. All mice were acclimated to the colony room for at least two weeks prior to testing and were subsequently tested at an average age of 8 weeks of age. During the period of acclimation, mice were examined on a regular basis, handled, and weighed to assure adequate health and suitability. Mice were maintained on a 12/12 light/dark cycle. The room temperature was maintained between 20 and 23° C. with a relative humidity maintained between 30% and 70%. Chow and water were provided ad libitum for the duration of the study. In each test, animals were randomly assigned across treatment groups.
# (§3) Distance traveled is measured by consecutive beam breaks.
# (§4) Data was analyzed by analysis of variance (ANOVA) followed by Fisher PLSD post-hoc analysis when appropriate. An effect was considered significant if p<0.05. Outliers that fell above and below two standard deviations from the mean were removed from the final analysis.
# [2] = tested on: extracellular serotonin (5-HT) in the frontal cortex; assay: Dual-probe microdialysis, serotonin in frontal cortex of freely-moving rats; format: in vivo, rat
# Description: (§5) A dual-probe microdialysis study was conducted to determine the effects of oral administration of cariprazine hydrochloride, alone and in combination with escitalopram oxalate (administered subcutaneously), on extracellular concentrations of acetylcholine (ACh), dopamine (DA) and serotonin (5-HT) in the frontal cortex of freely-moving rats.
# (§6) Experiments were carried out in male Sprague Dawley rats (250-350 g body weight; Charles River, UK). Animals were housed in groups of six on a 12 h/12 h light/dark cycle (lights on at 07.30 h), at an ambient temperature of 21±2° C. and 55±20% humidity. Food and water were available ad libitum. Animals were allowed to acclimatise to these conditions for at least 5 days prior to the study.
# (§7) Rats were anaesthetised with isoflurane (5% to induce, 2% to maintain) in an O2/N2O (1 litre/min each) mixture delivered via an anaesthetic unit (St Bernard Medical Services, UK). […] Samples were measured from the same side in each rat (e.g. left probe was used to measure ACh and right probe was used to measure DA and 5-HT). […]
# [3] = tested on: d-amphetamine/chlordiazepoxide mixture (AMPH/CDP)-induced hyperactivity in mice; assay: d-Amphetamine/chlordiazepoxide (AMPH/CDP) hyperactivity test (Example 4A); format: in vivo, mouse; conditions: for Total Distance Traveled [mean ± SEM]: test condition AMPH/CDP, 60 min pretreatment
# Description: as §1, §2
# (§8) d-Amphetamine sulfate (Sigma, 4.0 mg/kg) and chlordiazepoxide (CDP; Sigma, 2.5 mg/kg) were dissolved in sterile water and were administered intraperitoneally at a dose volume of 10 ml/kg.
# as §3, §4
# [4] = tested on: basal locomotor activity of mice; assay: Open field, basal locomotor activity of mice (Example 4B); format: in vivo, mouse; conditions: test condition water
# Description: as §1
# (§9) Male C57B1/6J mice (8 weeks old) from Jackson Laboratories (Bar Harbor, Me.) were used in this study. Upon receipt, mice were assigned unique identification numbers (tail marked) and were group housed (4 mice/cage) in OPTI mouse ventilated cages. All animals remained housed in groups of four during the remainder of the study. During the period of acclimation, mice were examined on a regular basis, handled, and weighed to assure adequate health and suitability. Mice were maintained on a 12/12 light/dark cycle. The room temperature was maintained between 20 and 23° C. with a relative humidity maintained between 30% and 70%. Chow and water were provided ad libitum for the duration of the study. In each test, animals were randomly assigned across treatment groups.
# as §3, §4
# [5] = tested on: extracellular dopamine (DA) in the frontal cortex; assay: Dual-probe microdialysis, dopamine in frontal cortex of freely-moving rats; format: in vivo, rat
# Description: as §5, §6, §7
# [6] = tested on: extracellular acetylcholine (ACh) in the frontal cortex; assay: Dual-probe microdialysis, acetylcholine in frontal cortex of freely-moving rats; format: in vivo, rat; conditions: for change in basal ACh levels compared to vehicle+saline-treated controls: escitalopram oxalate 1.0 mg/kg sc
# Description: as §5, §6
# Rats were anaesthetised with isoflurane (5% to induce, 2% to maintain) in an O2/N2O (1 litre/min each) mixture delivered via an anaesthetic unit (St Bernard Medical Services, UK). Concentric microdialysis probes with 2 mm exposed polyarylethersulphone (PAES) membrane tip (CMA) were stereotaxically implanted bilaterally into the prefrontal cortex (coordinates: AP: +3.2 mm; L: +/−2.5 mm relative to bregma; V: −4.0 mm relative to the skull surface; taken from the stereotaxic atlas of Paxinos and Watson (Paxinos G, Watson C., The Rat Brain in Stereotaxic Coordinates, 2nd Edition, London: Academic Press, 1986). The upper incisor bar was set at 3.3 mm below the interaural line so that the skull surface between bregma and lambda was horizontal. The coordinates for each probe were identical from bregma except for the lateral measurement as one probe was placed to the left of the midline and the other to the right. Samples were measured from the same side in each rat (e.g. left probe was used to measure ACh and right probe was used to measure DA and 5-HT). Additional burr holes were made for skull screws (stainless steel) and the probes were secured using dental cement. […]
# [7] = tested on: d-amphetamine/chlordiazepoxide mixture (AMPH/CDP)-induced hyperactivity in mice; assay: d-Amphetamine/chlordiazepoxide (AMPH/CDP) hyperactivity test (Example 4B); format: in vivo, mouse; conditions: for Total Distance Traveled [mean ± SEM]: test condition AMPH/CDP
# Description: as §1, §9, §8, §3, §4
# [8] = cariprazine hydrochloride 0.10 mg/kg oral
# [9] = cariprazine hydrochloride alone 0.03, 0.1 and 0.3 mg/kg po
# [10] = cariprazine HCl 0.03 mg/kg oral
# [11] = cariprazine HCl 0.10 mg/kg oral
# [12] = escitalopram oxalate 1.0 mg/kg sc
# [13] = escitalopram oxalate 0.10 mg/kg oral
# [14] = escitalopram oxalate 0.50 mg/kg oral
smiles,measurement,setting,value
"CN(C)C(=O)N[C@H]1CC[C@H](CCN2CCN(c3cccc(Cl)c3Cl)CC2)CC1 [Cariprazine hydrochloride, trans-4-{2-[4-(2,3-dichlorophenyl)-piperazin-1-yl]-ethyl}-N,N-dimethylcarbamoyl-cyclohexylamine hydrochloride]",effect on basal locomotor activity compared to water,[1]; [8],trend toward a significant decrease
same,effect on basal activity compared to water,[1]; cariprazine hydrochloride 0.30 mg/kg oral,significantly decreased
same,Total Distance Traveled [mean ± SEM],[1]; 0.03 mg/kg oral,4056 ± 427 cm/60 min
same,Total Distance Traveled [mean ± SEM],[1]; 0.10 mg/kg oral,1726 ± 112 cm/60 min
same,Total Distance Traveled [mean ± SEM],[1]; 0.30 mg/kg oral,917 ± 73 cm/60 min
same,efflux of 5-HT in the frontal cortex,[2]; [9],no significant effect
same,effect on mixture-induced hyperactivity,[3]; cariprazine hydrochloride 0.10 and 0.30 mg/kg oral,significantly decreased
same,Total Distance Traveled [mean ± SEM],[3]; 0.03 mg/kg oral,32122 ± 2942 cm/60 min
same,Total Distance Traveled [mean ± SEM],[3]; 0.10 mg/kg oral,13688 ± 2349 cm/60 min
same,Total Distance Traveled [mean ± SEM],[3]; 0.30 mg/kg oral,2525 ± 204 cm/60 min
same,Total Distance Traveled [mean ± SEM],[4]; [10],4013 ± 343 cm/60 min
same,Total Distance Traveled [mean ± SEM],[4]; [11],2697 ± 259 cm/60 min
same,efflux of DA in the frontal cortex,[5]; [9],no significant effect
same,efflux of ACh in the frontal cortex,[6]; [9],no significant effect
same,effect on enhanced locomotor activity produced by the CDP+amphetamine mixture,[7]; [8],significantly attenuated
same,Total Distance Traveled [mean ± SEM],[7]; [10],32628 ± 2510 cm/60 min
same,Total Distance Traveled [mean ± SEM],[7]; [11],22594 ± 2838 cm/60 min
"CN(C)CCC[C@@]1(c2ccc(F)cc2)OCc2cc(C#N)ccc21 [Escitalopram oxalate, 1-[3-(dimethyl-amino)propyl]-1-(p-fluorophenyl)-5-phthalancarbonitrile]",Total Distance Traveled [mean ± SEM],[1]; 0.50 mg/kg oral,4435 ± 389 cm/60 min
same,Total Distance Traveled [mean ± SEM],[1]; 5.0 mg/kg oral,6499 ± 445 cm/60 min
same,basal 5-HT levels,[2]; [12],no effect
same,effect on mixture-induced hyperactivity,[3]; escitalopram oxalate 0.5 mg/kg oral,trend toward a significant decrease
same,effect on mixture-induced hyperactivity,[3]; escitalopram oxalate 5.0 mg/kg oral,increased
same,Total Distance Traveled [mean ± SEM],[3]; 0.50 mg/kg oral,30067 ± 1901 cm/60 min
same,Total Distance Traveled [mean ± SEM],[3]; 2.0 mg/kg oral,36112 ± 1934 cm/60 min
same,Total Distance Traveled [mean ± SEM],[3]; 5.0 mg/kg oral,39639 ± 1582 cm/60 min
same,Total Distance Traveled [mean ± SEM],[4]; [13],5551 ± 382 cm/60 min
same,Total Distance Traveled [mean ± SEM],[4]; [14],5238 ± 242 cm/60 min
same,basal DA levels,[5]; [12],no effect
same,change in basal ACh levels compared to vehicle+saline-treated controls,[6]; 100 min post-administration,−55%
same,change in basal ACh levels compared to vehicle+saline-treated controls,[6]; 240 min post-administration,−56%
same,effect on mixture-induced locomotor activity,"[7]; escitalopram oxalate alone, either dose tested (0.10 and 0.50 mg/kg oral)",no significant effect
same,Total Distance Traveled [mean ± SEM],[7]; [13],39700 ± 3477 cm/60 min
same,Total Distance Traveled [mean ± SEM],[7]; [14],40881 ± 3123 cm/60 min
